Laboratory results reported in publication PMC11842588, “A first-in-class selective inhibitor of ERK1/2 and ERK5 overcomes drug resistance with a single-molecule strategy” (Signal Transduction and Targeted Therapy, 2025).

Legend:
Assay in all cases: Kinase profiling
Type in all cases: biochemical
[1] = molecular target: T1, ALK2(h) (Homo sapiens, UniProt Q04771)
T1 construct: purchased Eurofins Cerep SA (KinaseProfiler)
Description: (§1) 380 kinases inhibitory activities of SKLB-D18 were conducted by Eurofins Cerep SA. The result was illustrated by kinase tree (http://www.kinhub.org/kinmap/).

[2] = molecular target: T2, AMPKα2(h) (Homo sapiens, UniProt P54646)
T2 construct: purchased Eurofins Cerep SA (KinaseProfiler)
Description: as §1

[3] = molecular target: T3, CDK17/cyclinY(h) (Homo sapiens, UniProt Q00537)
T3 construct: purchased Eurofins Cerep SA (KinaseProfiler)
Description: as §1

[4] = molecular target: T4, CK1ε(h) (Homo sapiens, UniProt P49674)
T4 construct: purchased Eurofins Cerep SA (KinaseProfiler)
Description: as §1

[5] = molecular target: T5, COT(h) (Homo sapiens, UniProt P41279)
T5 construct: purchased Eurofins Cerep SA (KinaseProfiler)
Description: as §1

[6] = molecular target: T6, CSK(h) (Homo sapiens, UniProt P41240)
T6 construct: purchased Eurofins Cerep SA (KinaseProfiler)
Description: as §1

[7] = molecular target: T7, CaMKIV(h) (Homo sapiens, UniProt Q16566)
T7 construct: purchased Eurofins Cerep SA (KinaseProfiler)
Description: as §1

[8] = molecular target: T8, CaMKK2(h) (Homo sapiens, UniProt Q96RR4)
T8 construct: purchased Eurofins Cerep SA (KinaseProfiler)
Description: as §1

[9] = molecular target: T9, Cdc7/cyclinB1(h) (Homo sapiens, UniProt O00311)
T9 construct: purchased Eurofins Cerep SA (KinaseProfiler)
Description: as §1

[10] = molecular target: T10, EphA1(h) (Homo sapiens, UniProt P21709)
T10 construct: purchased Eurofins Cerep SA (KinaseProfiler)
Description: as §1

[11] = molecular target: T11, EphA8(h) (Homo sapiens, UniProt P29322)
T11 construct: purchased Eurofins Cerep SA (KinaseProfiler)
Description: as §1

[12] = molecular target: T12, FGFR1(h) (Homo sapiens, UniProt P11362)
T12 construct: purchased Eurofins Cerep SA (KinaseProfiler)
Description: as §1

[13] = molecular target: T13, Fgr(h) (Homo sapiens, UniProt P09769)
T13 construct: purchased Eurofins Cerep SA (KinaseProfiler)
Description: as §1

[14] = molecular target: T14, GRK7(h) (Homo sapiens, UniProt Q8WTQ7)
T14 construct: purchased Eurofins Cerep SA (KinaseProfiler)
Description: as §1

[15] = molecular target: T15, ICK(h) (Homo sapiens, UniProt Q9UPZ9)
T15 construct: purchased Eurofins Cerep SA (KinaseProfiler)
Description: as §1

[16] = molecular target: T16, IKKα(h) (Homo sapiens, UniProt O15111)
T16 construct: purchased Eurofins Cerep SA (KinaseProfiler)
Description: as §1

[17] = molecular target: T17, IR(h) (Homo sapiens, UniProt P06213)
T17 construct: purchased Eurofins Cerep SA (KinaseProfiler)
Description: as §1

[18] = molecular target: T18, Itk(h) (Homo sapiens, UniProt Q08881)
T18 construct: purchased Eurofins Cerep SA (KinaseProfiler)
Description: as §1

[19] = molecular target: T19, LATS1(h) (Homo sapiens, UniProt O95835)
T19 construct: purchased Eurofins Cerep SA (KinaseProfiler)
Description: as §1

[20] = molecular target: T20, LIMK2(h) (Homo sapiens, UniProt P53671)
T20 construct: purchased Eurofins Cerep SA (KinaseProfiler)
Description: as §1

[21] = molecular target: T21, LRRK2(h) (Homo sapiens, UniProt Q5S007)
T21 construct: purchased Eurofins Cerep SA (KinaseProfiler)
Description: as §1

[22] = molecular target: T22, MAPK1(h) (Homo sapiens, UniProt P28482)
T22 construct: purchased Eurofins Cerep SA (KinaseProfiler)
Description: as §1

[23] = molecular target: T23, MAPKAP-K3(h) (Homo sapiens, UniProt Q16644)
T23 construct: purchased Eurofins Cerep SA (KinaseProfiler)
Description: as §1

[24] = molecular target: T24, MEK2(h) (Homo sapiens, UniProt P36507)
T24 construct: purchased Eurofins Cerep SA (KinaseProfiler)
Description: as §1

[25] = molecular target: T25, MKK6(h) (Homo sapiens, UniProt P52564)
T25 construct: purchased Eurofins Cerep SA (KinaseProfiler)
Description: as §1

[26] = molecular target: T26, MRCKγ(h) (Homo sapiens, UniProt Q6DT37)
T26 construct: purchased Eurofins Cerep SA (KinaseProfiler)
Description: as §1

[27] = molecular target: T27, MSSK1(h) (Homo sapiens, UniProt Q9UPE1)
T27 construct: purchased Eurofins Cerep SA (KinaseProfiler)
Description: as §1

[28] = molecular target: T28, PDK1(h) (Homo sapiens, UniProt O15530)
T28 construct: purchased Eurofins Cerep SA (KinaseProfiler)
Description: as §1

[29] = molecular target: T29, PIP4K2a(h) (Homo sapiens, UniProt P48426)
T29 construct: purchased Eurofins Cerep SA (KinaseProfiler)
Description: as §1

[30] = molecular target: T30, PKBβ(h) (Homo sapiens, UniProt P31751)
T30 construct: purchased Eurofins Cerep SA (KinaseProfiler)
Description: as §1

[31] = molecular target: T31, PKCι(h) (Homo sapiens, UniProt P41743)
T31 construct: purchased Eurofins Cerep SA (KinaseProfiler)
Description: as §1

[32] = molecular target: T32, PKR(h) (Homo sapiens, UniProt P19525)
T32 construct: purchased Eurofins Cerep SA (KinaseProfiler)
Description: as §1

[33] = molecular target: T33, Ron(h) (Homo sapiens, UniProt Q04912)
T33 construct: purchased Eurofins Cerep SA (KinaseProfiler)
Description: as §1

[34] = molecular target: T34, SAPK2a(h) (Homo sapiens, UniProt Q16539)
T34 construct: purchased Eurofins Cerep SA (KinaseProfiler)
Description: as §1

[35] = molecular target: T35, SNRK(h) (Homo sapiens, UniProt Q9NRH2)
T35 construct: purchased Eurofins Cerep SA (KinaseProfiler)
Description: as §1

[36] = molecular target: T36, Snk(h) (Homo sapiens, UniProt Q9NYY3)
T36 construct: purchased Eurofins Cerep SA (KinaseProfiler)
Description: as §1

[37] = molecular target: T37, TNIK(h) (Homo sapiens, UniProt Q9UKE5)
T37 construct: purchased Eurofins Cerep SA (KinaseProfiler)
Description: as §1

[38] = molecular target: T38, TSSK1(h) (Homo sapiens, UniProt Q9BXA7)
T38 construct: purchased Eurofins Cerep SA (KinaseProfiler)
Description: as §1

[39] = molecular target: T39, Tie2 (h) (Homo sapiens, UniProt Q02763)
T39 construct: purchased Eurofins Cerep SA (KinaseProfiler)
Description: as §1

[40] = molecular target: T40, WNK4(h) (Homo sapiens, UniProt Q96J92)
T40 construct: purchased Eurofins Cerep SA (KinaseProfiler)
Description: as §1

[41] = molecular target: T41, ZAP-70(h) (Homo sapiens, UniProt P43403)
T41 construct: purchased Eurofins Cerep SA (KinaseProfiler)
Description: as §1

T28 sequence (O15530 whole entry): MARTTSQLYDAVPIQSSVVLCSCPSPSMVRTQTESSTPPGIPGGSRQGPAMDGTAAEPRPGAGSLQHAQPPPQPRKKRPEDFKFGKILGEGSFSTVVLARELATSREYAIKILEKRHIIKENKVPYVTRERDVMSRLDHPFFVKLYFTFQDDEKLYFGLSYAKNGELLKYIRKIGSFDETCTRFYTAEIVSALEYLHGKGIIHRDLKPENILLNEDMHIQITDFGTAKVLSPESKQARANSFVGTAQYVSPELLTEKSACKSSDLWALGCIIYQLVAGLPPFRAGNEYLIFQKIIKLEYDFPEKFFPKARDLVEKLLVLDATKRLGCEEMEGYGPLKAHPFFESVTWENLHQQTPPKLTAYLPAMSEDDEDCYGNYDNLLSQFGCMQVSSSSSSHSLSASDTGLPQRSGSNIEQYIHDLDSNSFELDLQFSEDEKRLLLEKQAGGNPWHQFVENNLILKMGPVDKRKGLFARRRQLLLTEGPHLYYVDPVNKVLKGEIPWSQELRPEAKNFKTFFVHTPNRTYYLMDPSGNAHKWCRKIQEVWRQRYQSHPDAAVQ
T38 sequence (Q9BXA7 whole entry): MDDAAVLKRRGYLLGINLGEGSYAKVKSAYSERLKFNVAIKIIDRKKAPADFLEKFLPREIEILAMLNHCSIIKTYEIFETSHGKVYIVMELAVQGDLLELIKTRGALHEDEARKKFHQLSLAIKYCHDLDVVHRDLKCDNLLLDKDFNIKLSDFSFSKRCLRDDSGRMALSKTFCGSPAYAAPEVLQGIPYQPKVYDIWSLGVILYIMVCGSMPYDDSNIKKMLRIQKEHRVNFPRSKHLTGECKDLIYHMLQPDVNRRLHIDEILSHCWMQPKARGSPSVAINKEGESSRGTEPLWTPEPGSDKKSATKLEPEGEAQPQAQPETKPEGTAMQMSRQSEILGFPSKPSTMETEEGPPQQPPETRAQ
T11 sequence (P29322 28-1005): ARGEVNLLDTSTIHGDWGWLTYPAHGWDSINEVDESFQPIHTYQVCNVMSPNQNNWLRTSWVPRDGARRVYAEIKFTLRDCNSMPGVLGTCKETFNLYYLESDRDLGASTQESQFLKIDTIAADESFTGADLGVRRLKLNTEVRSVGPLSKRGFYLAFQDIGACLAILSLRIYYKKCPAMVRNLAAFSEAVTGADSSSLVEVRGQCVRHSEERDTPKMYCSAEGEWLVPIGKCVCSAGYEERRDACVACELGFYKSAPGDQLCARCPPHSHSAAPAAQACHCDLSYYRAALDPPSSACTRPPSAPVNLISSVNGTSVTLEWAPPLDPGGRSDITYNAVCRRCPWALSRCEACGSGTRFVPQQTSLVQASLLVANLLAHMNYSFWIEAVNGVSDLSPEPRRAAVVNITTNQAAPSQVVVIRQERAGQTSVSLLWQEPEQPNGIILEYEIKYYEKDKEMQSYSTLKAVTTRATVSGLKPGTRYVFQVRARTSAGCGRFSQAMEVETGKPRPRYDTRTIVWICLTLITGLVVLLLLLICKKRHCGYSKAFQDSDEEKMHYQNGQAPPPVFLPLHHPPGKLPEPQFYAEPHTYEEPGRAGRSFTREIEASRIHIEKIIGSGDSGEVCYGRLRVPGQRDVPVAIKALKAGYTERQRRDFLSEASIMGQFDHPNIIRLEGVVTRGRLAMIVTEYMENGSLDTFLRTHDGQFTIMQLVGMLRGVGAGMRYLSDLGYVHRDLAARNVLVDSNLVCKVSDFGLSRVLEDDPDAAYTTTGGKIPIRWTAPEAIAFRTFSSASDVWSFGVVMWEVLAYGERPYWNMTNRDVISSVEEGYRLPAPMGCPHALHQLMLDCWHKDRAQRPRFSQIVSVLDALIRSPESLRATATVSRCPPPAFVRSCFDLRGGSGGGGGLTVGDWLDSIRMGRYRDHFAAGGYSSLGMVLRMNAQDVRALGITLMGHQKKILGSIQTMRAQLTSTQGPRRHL
T22 sequence (P28482 whole entry): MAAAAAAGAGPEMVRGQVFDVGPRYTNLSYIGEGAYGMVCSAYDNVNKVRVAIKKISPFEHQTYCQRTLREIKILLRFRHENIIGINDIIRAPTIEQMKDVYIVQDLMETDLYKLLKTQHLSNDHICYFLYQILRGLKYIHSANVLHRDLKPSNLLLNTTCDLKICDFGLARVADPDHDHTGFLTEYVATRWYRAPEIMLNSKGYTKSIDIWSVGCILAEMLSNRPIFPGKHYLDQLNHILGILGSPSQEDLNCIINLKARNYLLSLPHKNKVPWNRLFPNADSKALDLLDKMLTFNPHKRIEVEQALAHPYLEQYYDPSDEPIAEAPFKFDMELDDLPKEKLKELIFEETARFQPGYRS
T26 sequence (Q6DT37 whole entry): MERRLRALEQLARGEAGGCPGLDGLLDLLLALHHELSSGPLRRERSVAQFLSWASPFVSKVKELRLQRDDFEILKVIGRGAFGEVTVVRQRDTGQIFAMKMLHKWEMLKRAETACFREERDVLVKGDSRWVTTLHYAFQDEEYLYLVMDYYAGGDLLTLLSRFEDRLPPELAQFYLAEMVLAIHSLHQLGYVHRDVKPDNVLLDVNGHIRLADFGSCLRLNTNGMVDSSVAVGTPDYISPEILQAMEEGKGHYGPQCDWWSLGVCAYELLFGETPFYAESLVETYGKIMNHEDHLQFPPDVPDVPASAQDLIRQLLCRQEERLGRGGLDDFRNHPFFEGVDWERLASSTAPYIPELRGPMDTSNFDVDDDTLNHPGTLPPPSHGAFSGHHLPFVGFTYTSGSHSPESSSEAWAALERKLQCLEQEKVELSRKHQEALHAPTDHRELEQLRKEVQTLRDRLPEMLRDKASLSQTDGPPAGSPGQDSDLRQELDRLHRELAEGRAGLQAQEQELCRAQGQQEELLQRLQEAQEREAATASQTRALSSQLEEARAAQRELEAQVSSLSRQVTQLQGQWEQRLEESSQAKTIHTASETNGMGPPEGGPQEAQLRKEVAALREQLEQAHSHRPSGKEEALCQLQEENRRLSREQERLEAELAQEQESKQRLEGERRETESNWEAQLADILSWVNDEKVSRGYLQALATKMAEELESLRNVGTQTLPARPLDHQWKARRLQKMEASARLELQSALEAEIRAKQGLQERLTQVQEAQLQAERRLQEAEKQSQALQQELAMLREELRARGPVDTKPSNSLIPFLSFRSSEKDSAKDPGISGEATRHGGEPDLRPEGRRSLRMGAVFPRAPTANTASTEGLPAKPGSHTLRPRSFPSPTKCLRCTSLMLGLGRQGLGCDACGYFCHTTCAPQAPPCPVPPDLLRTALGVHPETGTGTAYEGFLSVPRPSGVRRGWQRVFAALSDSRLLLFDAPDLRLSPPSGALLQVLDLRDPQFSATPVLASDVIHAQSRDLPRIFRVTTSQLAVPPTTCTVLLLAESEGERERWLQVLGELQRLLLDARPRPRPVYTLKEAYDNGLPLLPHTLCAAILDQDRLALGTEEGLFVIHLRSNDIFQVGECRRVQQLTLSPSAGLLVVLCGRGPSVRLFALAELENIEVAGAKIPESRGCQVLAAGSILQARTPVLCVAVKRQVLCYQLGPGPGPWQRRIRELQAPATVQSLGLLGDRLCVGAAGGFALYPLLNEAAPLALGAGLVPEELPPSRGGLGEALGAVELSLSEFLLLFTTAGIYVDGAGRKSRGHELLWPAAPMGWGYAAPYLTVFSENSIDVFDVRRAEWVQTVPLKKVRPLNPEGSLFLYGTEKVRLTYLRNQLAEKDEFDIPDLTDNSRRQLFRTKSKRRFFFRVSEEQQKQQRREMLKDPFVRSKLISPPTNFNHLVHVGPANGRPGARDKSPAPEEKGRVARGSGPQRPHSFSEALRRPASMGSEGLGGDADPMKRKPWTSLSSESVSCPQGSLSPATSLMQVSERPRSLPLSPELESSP
T12 sequence (P11362 22-822): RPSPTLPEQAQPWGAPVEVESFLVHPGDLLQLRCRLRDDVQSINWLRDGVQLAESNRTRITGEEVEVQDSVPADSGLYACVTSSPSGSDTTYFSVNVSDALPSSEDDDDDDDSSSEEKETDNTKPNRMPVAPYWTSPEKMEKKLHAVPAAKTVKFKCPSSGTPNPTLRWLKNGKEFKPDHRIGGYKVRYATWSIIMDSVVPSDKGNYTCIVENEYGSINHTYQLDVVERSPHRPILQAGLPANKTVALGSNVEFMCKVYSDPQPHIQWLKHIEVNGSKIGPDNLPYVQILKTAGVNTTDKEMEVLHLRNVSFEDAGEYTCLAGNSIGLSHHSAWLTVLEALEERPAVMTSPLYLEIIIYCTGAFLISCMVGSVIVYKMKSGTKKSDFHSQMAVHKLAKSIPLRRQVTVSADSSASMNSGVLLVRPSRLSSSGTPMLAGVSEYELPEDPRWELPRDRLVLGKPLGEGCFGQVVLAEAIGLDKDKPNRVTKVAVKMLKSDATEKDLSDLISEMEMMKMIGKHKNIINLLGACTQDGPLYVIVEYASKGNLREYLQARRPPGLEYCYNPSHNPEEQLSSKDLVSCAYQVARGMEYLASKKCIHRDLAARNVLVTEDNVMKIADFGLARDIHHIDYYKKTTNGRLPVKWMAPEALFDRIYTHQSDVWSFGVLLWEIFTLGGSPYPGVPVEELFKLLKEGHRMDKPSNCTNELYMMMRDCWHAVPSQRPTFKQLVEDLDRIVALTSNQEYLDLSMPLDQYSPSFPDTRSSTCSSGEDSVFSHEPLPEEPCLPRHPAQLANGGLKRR
T4 sequence (P49674 whole entry): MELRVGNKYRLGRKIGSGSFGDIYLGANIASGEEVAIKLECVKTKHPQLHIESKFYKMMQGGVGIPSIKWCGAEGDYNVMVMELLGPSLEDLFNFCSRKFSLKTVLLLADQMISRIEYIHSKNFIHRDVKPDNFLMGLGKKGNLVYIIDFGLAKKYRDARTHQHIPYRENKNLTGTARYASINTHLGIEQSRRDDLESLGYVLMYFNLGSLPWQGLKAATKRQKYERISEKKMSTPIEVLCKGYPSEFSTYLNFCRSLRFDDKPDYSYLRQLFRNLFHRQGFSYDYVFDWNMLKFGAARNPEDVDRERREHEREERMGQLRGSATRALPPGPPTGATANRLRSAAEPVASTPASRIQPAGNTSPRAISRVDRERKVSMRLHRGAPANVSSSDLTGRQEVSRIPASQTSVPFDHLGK

In the case of `CN(C)Cc1cccc(Nc2ncc(Cl)c(-c3csc(C(=O)NN4CCOCC4)c3)n2)c1` [SKLB-D18, 4-(5-chloro-2-((3-((dimethylamino)methyl)phenyl)amino)pyrimidin-4-yl)-N-morpholinothiophene-2-carboxamide], the inhibition at 1 µM [1] is reported as 16%, the inhibition at 1 µM [2] is reported as 60% and the inhibition at 1 µM [3] is reported as 57%. It also gave an inhibition at 1 µM [4] of 18%, an inhibition at 1 µM [5] of -5% and an inhibition at 1 µM [6] of -11%. The inhibition at 1 µM [7] was 24%, the inhibition at 1 µM [8] was 21% and the inhibition at 1 µM [9] was 30%. For the same molecule, the inhibition at 1 µM [10] was 10%, the inhibition at 1 µM [11] was 14% and the inhibition at 1 µM [12] was 70%. The inhibition at 1 µM [13] was 42%, the inhibition at 1 µM [14] was 5% and the inhibition at 1 µM [15] was 20%. The inhibition at 1 µM [16] was 34%, the inhibition at 1 µM [17] was 0% and the inhibition at 1 µM [18] was 23%. The inhibition at 1 µM [19] was 21%, the inhibition at 1 µM [20] was 17% and the inhibition at 1 µM [21] was 65%. The inhibition at 1 µM [22] was 94%, the inhibition at 1 µM [23] was -10% and the inhibition at 1 µM [24] was 59%. The inhibition at 1 µM [25] was 5%, the inhibition at 1 µM [26] was 34% and the inhibition at 1 µM [27] was -19%. It also gave an inhibition at 1 µM [28] of 42%, an inhibition at 1 µM [29] of -1% and an inhibition at 1 µM [30] of -12%. It also gave an inhibition at 1 µM [31] of 8%, an inhibition at 1 µM [32] of 26% and an inhibition at 1 µM [33] of 58%. For the same molecule, the inhibition at 1 µM [34] was 9%, the inhibition at 1 µM [35] was -14% and the inhibition at 1 µM [36] was 28%. The inhibition at 1 µM [37] was 48%, the inhibition at 1 µM [38] was 60% and the inhibition at 1 µM [39] was 44%. The inhibition at 1 µM [40] was 18% and the inhibition at 1 µM [41] was 1%.
